Read-outs that look alike come from different tables or passages of the source.
Legend:
[1] = system: Key Broadleaf Weed and Crop Species; assay: Post-emergent Test II herbicidal activity (Table 5); assay type: in vivo; conditions: post-emergence, 336 h, 14 days after application; for pest or weed control at 70 g/ha: application rate 70 g ai/ha; for pest or weed control at 140 g/ha: application rate 140 g ai/ha
How it was run: (§1)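 Percent injury, 0 (none) to 100 (complete kill), was judged visually 14 d after spraying young plants at the first or second true leaf stage with compound in an acetone/DMSO aqueous carrier at 187 L/ha. Plants were kept in a greenhouse at 23–29 °C by day.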

[2] = system: Key Grass and Sedge Weeds as well as Grass Crops; assay: Post-emergent Test II herbicidal activity (Table 6); assay type: in vivo; conditions: post-emergence, 336 h; for pest or weed control at 70 g/ha: 70 g ai/ha; for pest or weed control at 140 g/ha: 140 g ai/ha
How it was run: as §1

[3] = ABUTH: velvetleaf (Abutilon theophrasti), read-out: Visual Growth Reduction (%) 14 Days After Application, ABUTH
[4] = AMARE: redroot pigweed (Amaranthus retroflexus), read-out: Visual Growth Reduction (%) 14 Days After Application, AMARE
[5] = BRSNN: oilseed-rape, canola (Brassica napus), read-out: Visual Growth Reduction (%) 14 Days After Application, BRSNN
[6] = CHEAL: lambsquarters (Chenopodium album), read-out: Visual Growth Reduction (%) 14 Days After Application, CHEAL
[7] = EPHHL: wild poinsettia (Euphorbia heterophylla), read-out: Visual Growth Reduction (%) 14 Days After Application, EPHHL
[8] = HELAN: sunflower (Helianthus annuus), read-out: Visual Growth Reduction (%) 14 Days After Application, HELAN
[9] = VIOTR: wild pansy (Viola tricolor), read-out: Visual Growth Reduction (%) 14 Days After Application, VIOTR
[10] = CYPES: yellow nutsedge (Cyperus esculentus), read-out: Visual Growth Reduction (%) 14 Days After Application, CYPES
[11] = DIGSA: crabgrass (Digitaria sanguinalis), read-out: Visual Growth Reduction (%) 14 Days After Application, DIGSA
[12] = ECHCG: barnyardgrass (Echinochloa crus-galli), read-out: Visual Growth Reduction (%) 14 Days After Application, ECHCG
[13] = ORYSA: rice (Oryza sativa), crop, read-out: Visual Growth Reduction (%) 14 Days After Application, ORYSA
[14] = SETFA: giant foxtail (Setaria faberi), read-out: Visual Growth Reduction (%) 14 Days After Application, SETFA
[15] = SORVU: grain sorghum (Sorghum vulgare), read-out: Visual Growth Reduction (%) 14 Days After Application, SORVU
[16] = TRZSS (wheat, Triticum aestivum), crop, read-out: Visual Growth Reduction (%) 14 Days After Application, TRZSS
[17] = ZEAMX: maize, corn (Zea mays), crop, read-out: Visual Growth Reduction (%) 14 Days After Application, ZEAMX

COC(=O)c1nc(-c2ccc(F)cc2)c(F)c(N)c1Cl [Compound 204]
60 to 74%: pest or weed control at 70 g/ha [2, 11] | pest or weed control at 140 g/ha [2, 11] | pest or weed control at 140 g/ha [2, 16]
95 to 100%: pest or weed control at 70 g/ha [1, 3] | pest or weed control at 140 g/ha [1, 3] | pest or weed control at 70 g/ha [1, 4] | pest or weed control at 140 g/ha [1, 4] | pest or weed control at 140 g/ha [1, 5] | pest or weed control at 70 g/ha [1, 6] | pest or weed control at 140 g/ha [1, 6] | pest or weed control at 70 g/ha [1, 7] | pest or weed control at 140 g/ha [1, 7] | pest or weed control at 70 g/ha [1, 8] | pest or weed control at 140 g/ha [1, 8] | pest or weed control at 140 g/ha [1, 9] | pest or weed control at 70 g/ha [2, 12] | pest or weed control at 140 g/ha [2, 12]
75 to 84%: pest or weed control at 70 g/ha [1, 9] | pest or weed control at 70 g/ha [2, 15] | pest or weed control at 70 g/ha [2, 17] | pest or weed control at 140 g/ha [2, 17]
45 to 59%: pest or weed control at 140 g/ha [2, 14] | pest or weed control at 70 g/ha [2, 16]
85 to 94%: pest or weed control at 70 g/ha [1, 5] | pest or weed control at 70 g/ha [2, 10] | pest or weed control at 140 g/ha [2, 10] | pest or weed control at 140 g/ha [2, 15]
131 °C: melting point
0 to 29%: pest or weed control at 70 g/ha [2, 13] | pest or weed control at 140 g/ha [2, 13] | pest or weed control at 70 g/ha [2, 14]
